The results in this text go back to patent US20230271949A1, “GLP-1R MODULATING COMPOUNDS” (ASCLETIS BIOSCIENCE CO., LTD., priority 2022, published 2023).

The test concerns the target GLP-1R (Homo sapiens, UniProt P43220). The experiment in a line: GLP-1R agonist cAMP stimulation assay (HTRF cAMP). The settings on record: HEK293 cell line expressing GLP-1 target; HTRF cAMP agonist mode, 30 min at RT. The class given is cell-based. The gist of the method: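 GLP-1R-expressing cells were stimulated with 10-point, 3-fold compound dilutions for 30 min at RT; HTRF cAMP detection reagents were then added for 60 min and the 665/615 ratio read. Ratios were converted to cAMP via a standard curve and % activity scaled between DMSO and top-concentration GLP-1(7-37) reference wells.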

Chain of GLP-1R (P43220 24-463): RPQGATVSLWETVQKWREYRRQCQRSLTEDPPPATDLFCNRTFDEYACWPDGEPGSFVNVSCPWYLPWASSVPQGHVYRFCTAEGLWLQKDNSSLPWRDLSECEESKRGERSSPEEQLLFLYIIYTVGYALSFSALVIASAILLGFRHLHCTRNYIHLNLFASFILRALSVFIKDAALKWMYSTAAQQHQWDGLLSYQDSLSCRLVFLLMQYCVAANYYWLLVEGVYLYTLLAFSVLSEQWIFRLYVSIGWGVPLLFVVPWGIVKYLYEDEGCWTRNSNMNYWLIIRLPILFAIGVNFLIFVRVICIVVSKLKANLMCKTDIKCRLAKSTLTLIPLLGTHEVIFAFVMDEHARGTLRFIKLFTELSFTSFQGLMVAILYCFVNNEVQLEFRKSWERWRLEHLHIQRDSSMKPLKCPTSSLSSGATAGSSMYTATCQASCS

What is called EC50 is the concentration at which the effect is half-maximal. A low value points to greater potency. On to `COCCn1c(CN2CCC(c3cccc(OCc4ccc(Cl)cc4F)n3)CC2)nc2cc(C(=O)NCc3ccc(C#N)cc3)ccc21` [Compound 30], for which the EC50 was determined as 1380 nM.

The compound `Cc1[nH]c2ccc(C(=O)Nc3ccc4c(c3)nc(CN3CC=C(c5cccc(OCc6ccc(Cl)cn6)n5)CC3)n4C[C@@H]3CCO3)cc2c1C` [Compound 392] gave an EC50 of 10.1 nM.

Compound `Cc1n[nH]c2c(F)cc(C(=O)Nc3ccc4c(c3)nc(C(F)(F)N3CC=C(c5cccc(OCc6ccc(Cl)cc6F)n5)CC3)n4C[C@@H]3CCO3)cc12` [Compound 255] had an EC50 of 0.32 nM.

`Cc1n[nH]c2ccc(NC(=O)c3ccc4c(c3)nc(CN3CC=C(c5cccc(OCc6ccc(Cl)cc6F)n5)CC3)n4C[C@@H]3CCO3)c(F)c12` [Compound 176] showed an EC50 of 0.87 nM.

Regarding `Cc1n[nH]c2ncc(C(=O)Nc3ccc4c(c3)nc(CN3CC=C(c5cccc(OCc6ccc(C#N)cc6F)n5)CC3)n4C[C@@H]3CCO3)cc12` [Compound 234], the EC50 amounted to 3.87 nM.

With `COCCn1c(CN2CCC(c3cccc(OCc4ccc(Cl)cc4F)n3)CC2)nc2cc(C(=O)NCc3ccc4[nH]ccc4c3)ccc21` [Compound 21], the EC50 worked out at 160 nM.

Turning to `Cc1n[nH]c2c(Cl)cc(NC(=O)c3ccc4c(c3)nc(CN3CC=C(c5cccc6c5OC(C)(c5ccc(Cl)cc5F)O6)CC3)n4CC3CCO3)cc12` (stereo not shown) [Compound 293], the EC50 was determined as 0.99 nM. This EC50 lies about 160-fold lower than the previous one.

In turn, `C[C@H](NC(=O)c1ccc2c(c1)nc(CN1CCC(c3cccc(OCc4ccc(Cl)cc4F)n3)CC1)n2C[C@@H]1CCO1)C(=O)N1CC(F)(F)C[C@H]1C(=O)O` [Compound 66] yielded an EC50 of 1.41 nM.

As for `CC1(c2ccc(C#N)cc2F)Oc2cccc(C3=CCN(Cc4nc5cc(NC(=O)c6ccc7[nH]nc(C8CC8)c7c6)ccc5n4CC4CCO4)CC3)c2O1` (stereo not shown) [Compound 312], the EC50 was 0.99 nM.

`Cc1nn(C)c2ccc(NC(=O)c3ccc4c(c3)nc(CN3CCC(c5cccc(OCc6ccc(Cl)cc6F)n5)CC3)n4C[C@@H]3CCO3)cc12` [Compound 109] came in with an EC50 of 47 nM.

In the case of `O=C(Nc1ccc2c(c1)nc(CN1CC=C(c3cccc(OCc4ccc(Cl)cc4F)n3)CC1)n2C[C@@H]1CCO1)c1ccc2[nH]nnc2c1` [Compound 241], the EC50 was found to be 0.31 nM.

`COCCn1c(CN2CCC(c3cccc(OCc4ccc(Cl)cc4F)n3)CC2)nc2cc(C(=O)NCC(=O)c3ccc(O)c(O)c3)ccc21` [Compound 42] displayed an EC50 of more than 10000 nM.

For the compound `Cc1n[nH]c2ccc(NC(=O)c3ccc4c(c3)nc(CN3CCC(c5cccc6c5OC(C)(c5ccc(Cl)cc5F)O6)CC3)n4CC3CCO3)cc12` (stereo not shown) [Compound 336], a half-maximal response (EC50) required 1.03 nM. This lies in the single-digit nanomolar range.

Turning to `O=C(Nc1ccc2c(c1)nc(CN1CC=C(c3cccc(OCc4ccc(Cl)cc4F)n3)CC1)n2C[C@@H]1CCO1)c1cc(F)c2c(c1)C1(CC1)C(=O)N2` [Compound 208], the EC50 was 0.25 nM.

`Cc1n[nH]c2c(C(F)F)cc(NC(=O)c3ccc4c(c3)nc(CN3CCC(c5cccc(OCc6ccc(Cl)cc6F)n5)CC3)n4C[C@@H]3CCO3)cc12` [Compound 119] gave an EC50 of 0.63 nM.

`CNS(=O)(=O)Cc1ccc2[nH]cc(CCNC(=O)c3ccc4c(c3)nc(CN3CCC(c5cccc(OCc6ccc(Cl)cc6F)n5)CC3)n4CCOC)c2c1` [Compound 39] returned an EC50 of 286 nM.

On to `Cc1n[nH]c2c(Cl)cc(C(=O)Nc3ccc4c(c3)nc(CN3CC=C(c5cccc6c5OC(C)(c5ccc(Cl)cc5F)O6)CC3)n4CC3CCO3)cc12` (stereo not shown) [Compound 308], for which the EC50 is 3.12 nM.

The compound `Cc1n[nH]c2ccc(C(=O)Nc3ccc4c(c3)nc(CN3CC=C(c5cccc(OCc6ccc(Cl)cc6F)n5)CC3)n4C[C@@H]3CCO3)nc12` [Compound 239] returned an EC50 of 3.19 nM.

With `Cc1n[nH]c2ccc(NC(=O)c3ccc4c(c3)nc(CN3CCC(c5cccc(OCc6ccc(Cl)cc6F)n5)CC3)n4C[C@@H]3CCO3)c(F)c12` [Compound 122], it took 3.21 nM to reach a half-maximal effect (EC50).

Take `O=C(Nc1ccc2c(c1)nc(C1CC13CCN(c1cccc(OCc4ccc(Cl)cc4F)n1)CC3)n2C[C@@H]1CCO1)c1cc(F)c2c(c1)C1(CC1)C(=O)N2` (stereo partly shown) [Compound 254]: the response was half-maximal at 1.92 nM (EC50).

On to `O=C(Nc1ncc2[nH]cnc2n1)c1ccc2c(c1)nc(CN1CCC(c3cccc(OCc4ccc(Cl)cc4F)n3)CC1)n2C[C@@H]1CCO1` [Compound 89], for which a half-maximal response (EC50) required 87.8 nM.

Consider `Cc1cc(C(=O)Nc2ccc3c(c2)nc(CN2CC=C(c4cccc(OCc5ccc(C#N)cc5F)n4)CC2)n3C[C@@H]2CCO2)cc2c(C3CC3)n[nH]c12` [Compound 233], for which a half-maximal response (EC50) required 0.92 nM. This EC50 lies about 95-fold lower than the previous one.

Compound `Cc1n[nH]c2ccc(C(=O)Nc3ccc4c(c3)nc(CN3CC=C(c5cccc(OCc6ccc(Cl)cc6F)n5)CC3)n4C[C@@H]3CCO3)c(F)c12` [Compound 224] yielded an EC50 of 3.29 nM.

On to `Cc1cc(NC(=O)c2ccc3c(c2)nc(CN2CC=C(c4cccc(OCc5ccc(Cl)cc5F)n4)CC2)n3C[C@@H]2CCO2)cc2c(C(F)F)n[nH]c12` [Compound 169], for which the EC50 amounted to 1.02 nM. This EC50 is about 3.2-fold lower than that of the compound before.

`O=C(Nc1ccc2c(c1)nc(CN1CC=C(c3cccc(OCc4ccc(Cl)cc4F)n3)CC1)n2C[C@@H]1CCO1)c1cc(F)c2[nH]ncc2c1` [Compound 205] showed an EC50 of 0.98 nM.

In the case of `CC(C)c1n[nH]c2ccc(NC(=O)c3ccc4c(c3)nc(CN3CC=C(c5cccc(OCc6ccc(Cl)cc6F)n5)CC3)n4C[C@@H]3CCO3)cc12` [Compound 140], the EC50 is 2.97 nM.

`Cc1n[nH]c2cc(F)c(C(=O)Nc3ccc4c(c3)nc(CN3CC=C(c5cccc(OCc6ccc(Cl)cc6F)n5)CC3)n4C[C@@H]3CCO3)cc12` [Compound 221] gave an EC50 of 2.13 nM.

Consider `CCc1n[nH]c2ccc(C(=O)Nc3ccc4c(c3)nc(CN3CC=C(c5cccc6c5OC(C)(c5ccc(C#N)cc5F)O6)CC3)n4CC3CCO3)cc12` (stereo not shown) [Compound 310], for which a half-maximal effect (EC50) was put at 0.93 nM.

Take `Cc1n[nH]c2c(C)cc(C(=O)Nc3ccc4nc(CN5CC=C(c6cccc(OCc7ccc(Cl)cc7F)n6)CC5)n(CC5CCO5)c4c3)cc12` (stereo not shown) [Compound 279]: the EC50 was determined as 0.95 nM.

As to `Cc1cc(-c2cccc3c2OC(C)(c2ccc(Cl)cc2F)O3)cc(F)c1Cc1nc2cc(NC(=O)c3ccc4[nH]nc(C5CC5)c4c3)ccc2n1CC1CCO1` (stereo not shown) [Compound 324], the EC50 came out at 2.95 nM.

`CC1(c2ccc(Cl)cc2F)Oc2cccc(C3=CCN(Cc4nc5cc(C(=O)Nc6ccc7[nH]nc(F)c7c6)ccc5n4CC4CCO4)CC3)c2O1` (stereo not shown) [Compound 328] yielded an EC50 of 12.7 nM.

Compound `Cc1cc(NC(=O)c2ccc3c(c2)nc(CN2CCC(c4cccc(OCc5ccc(C#N)cc5F)n4)CC2)n3C[C@@H]2CCO2)cc2c(C(F)F)n[nH]c12` [Compound 132] had an EC50 of 0.74 nM.

Turning to `O=C(Nc1ccc2c(c1)C1(CC1)C(=O)N2)c1ccc2c(c1)nc(CN1CC=C(c3cccc(OCc4ccc(Cl)cc4F)n3)CC1)n2C[C@@H]1CCO1` [Compound 143], a half-maximal effect (EC50) was put at 0.75 nM.

`Cc1cc(C(=O)Nc2ccc3c(c2)nc(CN2CCC(c4cccc5c4OC(C)(c4ccc(Cl)cc4F)O5)CC2)n3C[C@@H]2CCO2)cc2c1NC(=O)C21CC1` (stereo partly shown) [Compound 343]: a half-maximal effect (EC50) was put at 0.54 nM.

`Cc1n[nH]c2ccc(NC(=O)c3ccc4nc(CN5CC=C(c6cccc(OCc7ccc(Cl)cc7F)n6)CC5)n(CC5CCO5)c4c3)cc12` (stereo not shown) [Compound 263]: the EC50 worked out at 5.78 nM.

`O=C(Nc1ccc2[nH]nc(F)c2c1)c1ccc2c(c1)nc(CN1CC=C(c3cccc(OCc4ccc(Cl)cc4F)n3)CC1)n2C[C@@H]1CCO1` [Compound 139] yielded an EC50 of 15.2 nM.

`CC(C)c1n[nH]c2ccc(C(=O)Nc3ccc4c(c3)nc(C3CC35CCC(c3cccc(OCc6ccc(Cl)cc6F)n3)CC5)n4CC3CCO3)cc12` (stereo not shown) [Compound 251]: the EC50 was 2.22 nM.
